What all share (experiment): NCI tumour cell line growth inhibition, 48 h
Assay [1] has as its system SF-295 CNS.
Assay [2] concerns NCI-H226 lung.
Assay [3] deals with SK-MEL-28 melanoma.
Assay [4] concerns MDA-MB-231 breast.
The subject of assay [5] is MALME-3M melanoma.
Assay [6] deals with OVCAR-4 ovarian.
The subject of assay [7] is SR leukemia.
Assay [8] concerns SN12C renal.
Assay [9] concerns A549 NSCLC.
The test system of assay [10] is SK-MEL-5 melanoma.

Where “and” joins values, the source holds several entries; their conditions need not be identical. Identical values can stand only once.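 The compound was tested at five concentrations on cells cultured in 96-well plates, with a 48-hour exposure period. Here, GI50 denotes the concentration required for 50% inhibition of growth. TGI: total growth inhibition.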

This is an account of results in PubChem BioAssay (NCI).

Consider `CCOC(=O)n1cc(C2=C(c3ccc(OC)c(OC)c3)COC2=O)c2ccccc21`, for which the GI50 in assay [1] is 38.8 nM; in assay [2], 54.8 nM; in assay [3], 271 nM; in assay [4], 160 nM; in assay [5] it was 66.6 nM; in [6], 2360 nM. Moreover, the GI50 was 29.7 nM in assay [7], 68.1 nM in [8], 110 nM in assay [9] and 41 nM in assay [10]. The TGI in assay [1], in assay [2], in [3], in assay [4], in [5] and in [6] was more than 100000 nM in each case. Also, the TGI in [7] was more than 100000 nM; in [8], more than 100000 nM; in [9] it was more than 100000 nM; in [10], 480 nM.
As to `CC(=C(c1ccc(OCCN2CCCCC2)cc1)c1ccc(OCCN2CCCCC2)cc1)c1ccc(Cl)cc1`, the GI50 is 449 nM in assay [1]; 457 nM in assay [2]; 422 nM in assay [3]; 425 nM in assay [4]; 419 nM in [5]; 460 nM in assay [6]. Besides, the GI50 in [7] is 195 nM; in assay [8] it was 414 nM; in assay [9], 457 nM; in assay [10], 443 nM. The TGI came to 868 nM in assay [1]; 962 nM in assay [2]; 773 nM in [3]; 806 nM in assay [4]; 798 nM in assay [5]; 893 nM in assay [6]. For the same compound, the TGI worked out at 707 nM in assay [7], 785 nM in [8], 914 nM in assay [9] and 793 nM in assay [10].
With `CCC(C)SC1SCC2C(=O)N(C)C3(CC3C)C(=O)OCC(NC(=O)c3nc4ccccc4cc3O)C(=O)NC(C)C(=O)N(C)C1C(=O)N(C)C1(CC1C)C(=O)OCC(NC(=O)c1nc3ccccc3cc1O)C(=O)NC(C)C(=O)N2C` (configuration not stated), the TGI in assay [1] is 1.53 nM; in [2] it was 0.892 nM; in assay [3], 0.138 nM; in assay [4], 0.567 nM; in assay [5], 0.422 nM; in assay [6], 18.2 nM. Besides, the TGI was 9550 nM in [8]; 1910 nM in assay [9]; 0.112 nM and < 14.2 nM in [10]. In addition, the figures for the GI50 in assay [3], in [6] and in [10] were 0.0302 nM, 0.187 nM and 0.0291 nM, respectively.
`Cc1ccc(NC2=C3CCCCC3OC2=O)cc1` (configuration not stated): the GI50 in assay [1] is 75000 nM; in [2], 87100 nM; in [3], more than 100000 nM; in assay [4] it was 35200 nM; in assay [5], 39200 nM; in assay [6] it was 43200 nM. The GI50 in [7] is 39500 nM; in [8], 93000 nM; in assay [9], more than 100000 nM; in [10], 34900 nM. Further, the TGI in assay [1], in [2], in assay [3], in assay [4], in assay [5] and in assay [6] was more than 100000 nM each time. The TGI in assay [7], in assay [8], in [9] and in [10] was more than 100000 nM in each case.
With `NCCNCCNCCN`, the GI50 in [1], in assay [2], in assay [3], in assay [4], in assay [6] and in [7] was more than 100000 nM throughout. Besides, the GI50 in assay [8], in assay [9] and in [10] was more than 100000 nM each time. In addition, the TGI in [1], in assay [2], in assay [3], in [4], in assay [6] and in assay [7] was more than 100000 nM throughout. In addition, the TGI in [8], in [9] and in assay [10] was more than 100000 nM throughout.
`C=C1C(=O)O[C@H]2[C@H]1CC/C(CNC(=O)c1cc3ccccc3[nH]1)=C\CC[C@@]1(C)O[C@@H]21`: the GI50 is 6450 nM in assay [1]; 2580 nM in assay [2]; 1380 nM in assay [4]; 1780 nM in assay [5]; 1730 nM in [6]; 319 nM in assay [7]. Moreover, the GI50 in [8] was 1790 nM; in assay [9] it was 4390 nM; in assay [10] it was 1720 nM. For the same compound, the TGI in assay [1] amounted to 19500 nM; in assay [2], 10700 nM; in assay [4], 3340 nM; in assay [5] it was 3600 nM; in [6] it was 5530 nM; in [7], 3400 nM. Further, the figures for the TGI in assay [8], in assay [9] and in [10] were 4850 nM, 15700 nM and 3650 nM, respectively.
For `O=C(Nc1nn2c(-c3cc(C(F)(F)F)cc(C(F)(F)F)c3)nnc2s1)C1CCCC1`, the GI50 in assay [1] was 286 nM; in assay [2], 1230 nM; in [3], 734 nM; in [4], 1120 nM; in assay [5] it was 270 nM; in [6] it was 748 nM. Moreover, the GI50 in assay [7] was 942 nM; in assay [8], 454 nM; in assay [9], 1080 nM; in assay [10] it was 251 nM. In addition, the TGI in assay [1] was 2010 nM; in assay [2], more than 100000 nM; in assay [3] it was more than 100000 nM; in assay [4] it was 4010 nM; in [5], 2930 nM; in assay [6], more than 37900 nM. Besides, the TGI was 6210 nM in assay [7], more than 36700 nM in assay [8], more than 100000 nM in [9] and 1740 nM in assay [10].
As to `Nc1nc2[nH]cc(CCc3ccc(C(=O)N[C@@H](CCC(=O)O)C(=O)O)cc3)c2c(=O)[nH]1`, the GI50 is 606 nM in assay [1], more than 100000 nM in [4], 737 nM in [8] and 587 nM in assay [9]. Moreover, the TGI in assay [1], in [2], in [3], in assay [4], in assay [5] and in assay [6] was more than 100000 nM in each case. The TGI in assay [7], in assay [8], in [9] and in [10] was more than 100000 nM each time.
